Experiments:
[1] = Osteocalcin in blood of ICV-infused Osteocalcin−/− mice; assay type: in vivo, mouse; conditions: ICV infusion 10 ng/hour
Description: For osteocalcin delivery to pregnant mice, IP injections (240 ng/day) were performed as soon as a plug was present daily until delivery (E0.5-E18.5). For osteocalcin or leptin infusion in adult Osteocalcin^−/− or ob/ob mice, pumps (Alzet micro-osmotic pump, Model 1002) delivering osteocalcin (300 ng/hr), leptin (50 ng/hr), or vehicle were surgically installed subcutaneously in the backs of 3-month old mice. For the postnatal rescue of cognitive functions in Osteocalcin^−/− mice, osteocalcin (10 ng/hour) or vehicle were delivered intrasubventricularly (icv) as previously described (Ducy et al., 2000, Cell 100:197-207). Leptin and osteocalcin content in sera and tissues were determined by ELISA.
The pharmacological relevance of this ability of osteocalcin to signal in neurons was established by delivering uncarboxylated osteocalcin through intracerebro-ventricular (ICV) infusions (10 ng/hour) in WT and Osteocalcin^−/− mice. The localization of the cannula was verified by administering methylene blue through these pumps. […] This week-long treatment with uncarboxylated osteocalcin corrected the anxiety and depression features noted in Osteocalcin^−/− mice (FIG. 12A-E). Collectively, the results described herein indicate that osteocalcin alleviates anxiety and depression in the mouse by acting directly in the brain.

[2] = test system: Osteocalcin−/− mice; test: Behavioral tests of adult Osteocalcin−/− offspring of osteocalcin-injected pregnant Osteocalcin−/− mothers; assay type: in vivo, mouse; conditions: 240 ng/day once a day to pregnant mothers, E0.5 to E18.5
Description: FIG. 13. Maternal osteocalcin determines spatial learning and memory in adult offspring. (A-F) DLT (A), EPMT (B), OFT (C), FST (D), TST (E), and MWMT (F) performed in 3-month-old Osteocalcin^−/− mice born from Osteocalcin^−/− mothers injected once a day with vehicle or recombinant uncarboxylated osteocalcin (240 ng/day) during pregnancy compared to WT mice. (G) Surface of the lateral ventricle over brain area (%) of E18.5 hippocampi coronal sections of WT embryos originating from WT mothers and Osteocalcin^−/− embryos originating from osteocalcin-injected Osteocalcin^−/− mothers. (H) Number of apoptotic cells (stained by TUNEL assay) of E18.5 hippocampi coronal sections of WT embryos originating from WT mothers and Osteocalcin^−/− embryos originating from Osteocalcin^−/− mothers injected with osteocalcin (240 ng/day). […]
For osteocalcin delivery to pregnant mice, IP injections (240 ng/day) were performed as soon as a plug was present daily until delivery (E0.5-E18.5). […] Leptin and osteocalcin content in sera and tissues were determined by ELISA.
Spatial memory was assessed with Morris water maze (MWM) setup (Morris, 1981, Nature 297:681-683) using a training protocol adapted for mice (D'Hooge et al., 2005, J. Soc. Neurosci. 25:6539-6549). […] Spatial learning is assessed across repeated trials (4 trials/day for 10 days). […]

[3] = test system: WT mice; test: D/LT and EPMT in adult WT mice with ICV infusion; assay type: in vivo, mouse
Description: FIG. 14. Osteocalcin improves cognitive function in adult wild-type (WT) mice. Results from dark and light (DLT) and elevated plus maze tests (EPMT) performed in 3-month old WT mice infused ICV with vehicle (PBS) or recombinant uncarboxylated osteocalcin (Ocn) (3, 10, 30 ng/hour) are shown. (A) DLT measuring the latency to enter, the number of entries, and the time spend in lit compartment. (B) EPMT measuring the number of entries into open arms and the time spend in […].
Each mouse was allowed to explore the apparatus for 5 min. Global activity was assessed by measuring the number of entries […] (David et al, 2009, Neuron 62:479-493). Anxiety was assessed by comparing the time spent in the open arms.
The test was performed in a quiet, darkened room. Mice were individually housed in cages containing a handful of bedding from their home cage and acclimated to the room at least 1 h before the test. Naïve mice were placed individually in the testing chamber in the dark compartment. The test was 5 min in duration, and time spent and number of entries in light compartments were recorded a highly trained observer, blind to the genotype of the mice.
To determine if osteocalcin is sufficient to improve cognitive function in adult mice, WT 2-month old mice were implanted with ICV pumps delivering vehicle (PBS), or 3, 10, or 30 ng/hr recombinant uncarboxylated full-length mouse osteocalcin for a period of one month. After one month of infusion, animals were subjected to behavioral testing. […] This improvement is evidenced by an increase in the exploration of the lit compartment and open arms in the D/LT and EMP tests, respectively (FIG. 14A-B).

[4] = Crossing of the blood-brain barrier; conditions: stated without test description
[5] = 3 or 10 ng/hour ICV for one month

## uncarboxylated osteocalcin: Recombinant uncarboxylated mouse osteocalcin, bacterially produced, purified on glutathione beads and cleaved from the GST subunit by thrombin (YLGASVPSPDPLEPTREQCELNPACDELSDQYGLKTAYKRIYGITI)
[1]
  leakage of the centrally delivered hormone into the general circulation: no leakage
[2]
  anxiety or depression phenotypes of the offspring: did not have any beneficial effect
  deficit in learning and memory of the offspring: rescued over two third
[3]; [5]
  exploration of the lit compartment (D/LT): increase
  exploration of the open arms (EPMT): increase
[3]; 3 or 10 ng/hour ICV for one month, WT 2-month old mice
  anxiety-like behavior: decrease
[3]; adult WT mice, ICV 3, 10, 30 ng/hour (FIG. 14 title)
  cognitive function: improves
[4]
  crossing of the blood-brain barrier: crosses
[4]; listed as undercarboxylated/uncarboxylated osteocalcin
  crossing of the blood-brain barrier: can cross

— US11191811B2, “Osteocalcin as a treatment for frailty associated with aging” (THE TRUSTEES OF COLUMBIA UNIVERSITY IN THE CITY OF NEW YORK, priority 2014, dated 2021)
